Experiments:
hTRPC3 = molecular target: T1, hTRPC3 (Homo sapiens, UniProt Q13507); assay: Whole-cell patch clamp, AlF4- evoked TRPC3 currents; assay type: cell-based; conditions: 10 µM, AlF4- infusion
T1 construct: expressed in transfected cells
T1 sequence (Q13507 1-848 isoform Q13507-3): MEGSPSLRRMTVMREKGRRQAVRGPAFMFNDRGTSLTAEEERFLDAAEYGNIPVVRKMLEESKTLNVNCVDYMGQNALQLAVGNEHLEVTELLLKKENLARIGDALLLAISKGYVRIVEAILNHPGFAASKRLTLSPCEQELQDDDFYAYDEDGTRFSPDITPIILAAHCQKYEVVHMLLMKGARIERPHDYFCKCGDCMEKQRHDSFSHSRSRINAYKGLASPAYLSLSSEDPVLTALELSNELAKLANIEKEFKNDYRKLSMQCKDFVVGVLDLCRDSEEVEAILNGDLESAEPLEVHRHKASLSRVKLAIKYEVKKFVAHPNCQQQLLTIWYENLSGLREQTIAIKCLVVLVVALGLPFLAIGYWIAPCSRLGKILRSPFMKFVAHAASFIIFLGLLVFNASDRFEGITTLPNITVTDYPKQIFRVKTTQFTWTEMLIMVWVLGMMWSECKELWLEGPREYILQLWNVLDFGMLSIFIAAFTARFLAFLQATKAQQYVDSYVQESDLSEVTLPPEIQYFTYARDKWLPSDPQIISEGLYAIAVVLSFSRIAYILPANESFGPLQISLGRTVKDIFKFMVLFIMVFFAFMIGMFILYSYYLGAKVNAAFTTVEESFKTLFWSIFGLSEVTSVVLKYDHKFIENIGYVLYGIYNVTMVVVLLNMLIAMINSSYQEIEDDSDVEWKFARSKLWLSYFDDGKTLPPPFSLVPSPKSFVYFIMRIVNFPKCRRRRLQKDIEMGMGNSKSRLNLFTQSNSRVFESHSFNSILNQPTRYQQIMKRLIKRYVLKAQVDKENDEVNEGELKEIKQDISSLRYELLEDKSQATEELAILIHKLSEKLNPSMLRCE
Source text: hTRPC3 (GenBank accession number NM_003305) was stably expressed in chinese hamster ovary (CHO) cells using a proprietary high expression vector (Steinbeis –Transferzentrum für Angewandte Biologische Chemie, Mannheim, Germany).
The whole-cell patch clamp technique was employed to measure ion currents from single cells. Heat-polished patch pipettes with resistances of 2–4 MΩ were pulled from borosilicate glass capillaries (Hilgenberg, Malsfeld, Germany) using a DMZ-Universal puller (Zeitz-Instruments, Munich, Germany) and filled with standard intracellular solution containing: 120 mM CsOH, 120 mM gluconic acid, 2 mM MgCl2, 3 mM CaCl2, 5 mM Cs4-BAPTA, 10 mM HEPES (pH 7.4 adjusted with gluconic acid). For agonist-independent stimulation of TRPC currents the intracellular solution was supplemented with 30 µM AlCl3 and 10 mM NaF and cells were infused with AlF4 ^− through the patch pipette. […]
Cells grown on poly-L-lysine-coated coverslips were continuously superfused with extracellular solution and substances were applied using an ALA BPS-8 perfusion system (ALA Scientific Instruments, Westbury, USA). […] Cells were held at −70 mV, and current-voltage (I–V) relationships were routinely measured every 2 or 3 s by applying voltage ramps (180 ms) from −100 mV to +80 mV. […]

human α1A-receptors = molecular target: T2, human α1A-receptors (Homo sapiens, UniProt P35348); assay: Phenylephrine-induced Ca2+ release in CHO cells expressing human α1A-receptors (fluo-4); assay type: cell-based; conditions: 10 µM phenylephrine, 1 mM EGTA buffer
T2 construct: expressed in transfected cells
T2 sequence (P35348 1-466): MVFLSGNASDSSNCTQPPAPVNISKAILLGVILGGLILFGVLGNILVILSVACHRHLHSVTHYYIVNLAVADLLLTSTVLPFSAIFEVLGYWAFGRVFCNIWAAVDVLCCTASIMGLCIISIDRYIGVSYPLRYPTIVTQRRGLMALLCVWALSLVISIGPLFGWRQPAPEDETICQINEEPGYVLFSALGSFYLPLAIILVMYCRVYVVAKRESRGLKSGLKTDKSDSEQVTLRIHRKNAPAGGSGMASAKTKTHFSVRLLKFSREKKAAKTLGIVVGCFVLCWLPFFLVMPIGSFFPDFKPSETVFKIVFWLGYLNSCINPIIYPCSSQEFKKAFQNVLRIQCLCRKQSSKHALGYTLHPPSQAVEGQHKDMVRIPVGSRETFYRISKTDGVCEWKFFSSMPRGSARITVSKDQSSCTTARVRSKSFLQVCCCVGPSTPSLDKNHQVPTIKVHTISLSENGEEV
Description: For measurement of norgestimate effects on adrenoceptor signaling a CHO cell line stably expressing human α1A-receptors (GenBank accession number NM_000680.2) under control of a CMV promoter was used. CHO cells were kept in HAM's F-12 medium (with glutaMAX I) supplemented with 10% (v/v) fetal bovine serum (Biochrom), 1 mM glutamine, and 0.6 mg/ml geneticin.
[Ca^2+]i measurements in CHO cells stably expressing human α1A –receptors were performed essentially as described for HEK-FITR cells. The α1- agonist phenylephrine was used for receptor stimulation.
Supplementary file pone.0035393.s001.tif: Figure S1 Stimulatory effect of norgestimate on α1A- receptor-mediated Ca^2+ signaling in CHO cells. (A) Phenylephrine (Phe) -induced changes of [Ca^2+]i were measured in a stable CHO cell line expressing human α1A-adrenoceptors. Cells loaded with fluo-4 were pre-incubated with or without 30 µM norgestimate (NG) and challenged with 10 µM phenylephrine or control buffer. Representative traces are shown. Fluorometric imaging plate reader [Ca^2+]i measurements were performed essentially as described for HEK-FITR cells (see Materials and Methods) with the exception that the extracellular buffer contained 1 mM EGTA instead of 2 mM Ca^2+. (B) The relative increase in Ca^2+ release induced in the presence of different concentrations of norgestimate is shown. […]

C#C[C@]1(OC(C)=O)CC[C@H]2[C@@H]3CCC4=CC(=NO)CC[C@@H]4[C@H]3CC[C@@]21CC (mixture of isomers) [norgestimate]
Inhibition of TRPC3 currents (hTRPC3): almost completely inhibited | Effect on phenylephrine-induced Ca2+ release (human α1A-receptors): significantly stimulated
